Test results from patent publication US20240051936A1, “ISOINDOLINONE COMPOUNDS” (Monte Rosa Therapeutics, Inc., priority 2021, published 2024).
pIC50: −log10 of the molar value. Like-named read-outs stand apart in the source and are kept apart here.

Key:
GSPT1 = GSPT1 (Homo sapiens (Human), UniProt P15170+Q96SW2); experiment: Immunofluorescence assay for GSPT1 degradation in CAL-Si cells; assay type: cell-based
Outline: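 CAL-Si cells on fibronectin were treated for 6 h with serial dilutions (30 μM to 0.1 nM). After fixation, GSPT1 was immunostained and imaged by high-content analysis, with DAPI/actin cell segmentation giving mean GSPT1 intensity per cell. DC50 came from nonlinear regression after normalization to controls.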

CRBN = CRBN (Homo sapiens (Human), UniProt Q96SW2); experiment: HTRF binding of compounds to CRBN; settings: read-out: HTRF Class (HTRF IC50, Cereblon binding)
Sequence of CRBN (Q96SW2 whole entry, species assumed): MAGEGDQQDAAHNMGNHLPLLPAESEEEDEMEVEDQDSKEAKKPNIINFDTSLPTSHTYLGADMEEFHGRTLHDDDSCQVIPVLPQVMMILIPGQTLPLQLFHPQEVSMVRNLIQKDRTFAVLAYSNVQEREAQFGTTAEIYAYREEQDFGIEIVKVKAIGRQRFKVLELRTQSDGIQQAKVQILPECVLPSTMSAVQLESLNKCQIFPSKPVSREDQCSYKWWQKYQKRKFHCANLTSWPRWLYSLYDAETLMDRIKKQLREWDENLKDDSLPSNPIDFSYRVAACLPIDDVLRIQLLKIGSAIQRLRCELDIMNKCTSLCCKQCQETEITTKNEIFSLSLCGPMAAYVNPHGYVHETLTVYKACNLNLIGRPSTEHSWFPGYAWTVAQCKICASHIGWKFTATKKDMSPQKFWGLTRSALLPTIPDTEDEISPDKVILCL

[1] = target: Full length wild-type cereblon CRBN (Homo sapiens (Human), UniProt Q96SW2); experiment: Fluorescence polarization (FP) assay, cereblon binding; settings: wild-type CRBN 80.0 nM, probe 5 nM, FP measured after 12 hours, read-out: rFP IC50
Sequence of Full length wild-type cereblon CRBN (Q96SW2 whole entry): as the sequence (Q96SW2 whole entry, species assumed) above
Outline: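 Full-length wild-type CRBN (80.0 nM) preincubated 30 min RT with compound (300–0.937 or 3000–9.3 nM, 12 points) in 20 mM HEPES pH 8.0, 150 NaCl, 0.5 mM TCEP, 0.05% Tween 20. Probe added at 5 nM final; FP read after 12 h (ex 590/em 675 nm), normalized to DMSO for IC50.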

[2] = Table 4, read-out: IF Class (ability for GSPT1 degradation)

Sequence of GSPT1 (P15170 whole entry): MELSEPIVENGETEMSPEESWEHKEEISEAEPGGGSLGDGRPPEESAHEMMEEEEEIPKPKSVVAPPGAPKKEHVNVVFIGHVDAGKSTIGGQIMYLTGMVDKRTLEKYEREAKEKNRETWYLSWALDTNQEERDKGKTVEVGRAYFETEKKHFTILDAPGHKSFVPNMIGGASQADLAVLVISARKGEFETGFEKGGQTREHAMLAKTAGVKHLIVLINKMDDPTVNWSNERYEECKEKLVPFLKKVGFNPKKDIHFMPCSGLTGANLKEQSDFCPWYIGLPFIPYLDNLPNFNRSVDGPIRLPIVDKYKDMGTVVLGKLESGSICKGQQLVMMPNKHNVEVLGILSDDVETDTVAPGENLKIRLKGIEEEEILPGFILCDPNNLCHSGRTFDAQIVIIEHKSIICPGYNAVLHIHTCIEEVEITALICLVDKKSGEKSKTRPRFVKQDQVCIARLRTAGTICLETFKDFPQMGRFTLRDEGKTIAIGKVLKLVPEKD
Sequence of GSPT1 (Q96SW2 whole entry): as the sequence (Q96SW2 whole entry, species assumed) above
Sequence of GSPT1 (Q16531 whole entry partner): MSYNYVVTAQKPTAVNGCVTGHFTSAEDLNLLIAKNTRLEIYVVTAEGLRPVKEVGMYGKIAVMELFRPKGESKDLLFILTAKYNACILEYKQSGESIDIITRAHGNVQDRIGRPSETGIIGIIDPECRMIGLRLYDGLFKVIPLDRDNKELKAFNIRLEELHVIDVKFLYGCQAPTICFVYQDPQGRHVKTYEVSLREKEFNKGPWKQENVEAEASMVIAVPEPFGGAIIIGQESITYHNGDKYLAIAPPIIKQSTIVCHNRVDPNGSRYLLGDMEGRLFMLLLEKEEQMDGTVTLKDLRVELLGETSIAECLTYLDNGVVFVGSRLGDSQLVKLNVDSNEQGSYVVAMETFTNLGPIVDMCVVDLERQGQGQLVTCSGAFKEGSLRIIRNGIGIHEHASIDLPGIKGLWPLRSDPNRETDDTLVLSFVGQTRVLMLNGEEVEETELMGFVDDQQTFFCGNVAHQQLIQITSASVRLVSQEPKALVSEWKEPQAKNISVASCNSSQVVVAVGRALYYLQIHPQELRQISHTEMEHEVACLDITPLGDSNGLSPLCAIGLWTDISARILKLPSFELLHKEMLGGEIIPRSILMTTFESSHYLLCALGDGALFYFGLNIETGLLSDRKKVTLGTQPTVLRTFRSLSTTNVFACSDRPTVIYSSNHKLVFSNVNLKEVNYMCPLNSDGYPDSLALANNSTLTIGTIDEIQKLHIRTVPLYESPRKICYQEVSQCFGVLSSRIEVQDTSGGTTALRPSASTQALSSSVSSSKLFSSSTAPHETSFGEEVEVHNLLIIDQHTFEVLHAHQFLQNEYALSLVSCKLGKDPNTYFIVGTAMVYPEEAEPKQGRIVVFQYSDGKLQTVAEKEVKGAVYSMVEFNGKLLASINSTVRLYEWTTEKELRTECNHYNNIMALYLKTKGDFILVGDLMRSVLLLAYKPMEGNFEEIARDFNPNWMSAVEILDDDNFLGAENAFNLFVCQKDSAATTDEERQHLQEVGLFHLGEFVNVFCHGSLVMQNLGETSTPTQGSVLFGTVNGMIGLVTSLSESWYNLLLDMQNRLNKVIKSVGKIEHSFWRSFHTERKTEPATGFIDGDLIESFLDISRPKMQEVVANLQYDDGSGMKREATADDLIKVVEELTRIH

Row | DC50 (GSPT1; [2]) [nM] | pIC50 (CRBN) | Structure (SMILES) | pIC50 [1] | DC50 (GSPT1; CAL-Si cells, compounds with code A, read-out: DC50 value code) [nM] | DC50 (GSPT1; CAL-Si cells, treated 6 hours, read-out: Code, activity for GSPT1 degradation (DC50)) [nM]
1 | > 300 | < 6.00 | Cc1ccc(NC(=O)OCc2ccc3c(c2Cl)C(=O)N(C2CCC(=O)NC2=O)C3)cc1Cl (centres unmarked) [Compound 72, (4-chloro-2-(2,6-dioxopiperidin-3-yl)-3-oxoisoindolin-5-yl)methyl(3-chloro-4-methylphenyl) carbamate] |  |  | 
2 | < 30 | 6.00 to 7.00 | CC1(c2ccc(NC(=O)OCc3cc(F)c4c(c3)C(=O)N(C3CCC(=O)NC3=O)C4)cn2)CC1 (centres unmarked) [Compound 75, (2-(2,6-dioxopiperidin-3-yl)-7-fluoro-3-oxoisoindolin-5-yl)methyl(6-(1-methylcyclopropyl)pyridin-3-yl)carbamate] |  |  | 

Row | Structure (SMILES) | DC50 (GSPT1; [2]) [nM] | pIC50 (CRBN) | pIC50 [1] | DC50 (GSPT1; CAL-Si cells, compounds with code A, read-out: DC50 value code) [nM] | DC50 (GSPT1; CAL-Si cells, treated 6 hours, read-out: Code, activity for GSPT1 degradation (DC50)) [nM]
3 | Cc1ccc(NC(=O)OCc2ccc3c(c2F)C(=O)N(C2CCC(=O)NC2=O)C3)cc1Cl (centres unmarked) [Compound 71, (2-(2,6-dioxopiperidin-3-yl)-4-fluoro-3-oxoisoindolin-5-yl)methyl(3-chloro-4-methylphenyl)carbamate] |  | 6.00 to 7.00 | < 5.72 | < 30 | < 30
